Assay results taken from US10822317B2, “Methods and compositions for wound healing” (QBiotics Limited, priority 2013, dated 2020).

Assays:
[1] = test system: human neonatal fibroblasts; test: Scratch closure, human neonatal fibroblasts, Method 2; assay type: cell-based; settings: 200 ng/mL
Method: The ability of early. passage neonatal foreskin fibroblasts (NFF) cultured in RPMI 1640-10% foetal calf serum to migrate across a scratch wound made in a confluent monolayer following treatment with purified compounds or plant extracts was determined using one or more of the following three methods.
Cells were seeded in 6 mm wells (96-well plates) or 16 mm (24-well plates), with 2 to 6 replicate wells/dilution, and treated as in Method 1. Immediately after treatment, the scratch edges were outlined on the underside of the well with a fine point felt pen. After fixing and staining, migration was assessed under the microscope with the aid of a graticule, scoring migration as 0, 25, 50, 75 or 100% (total closure) of the initial width. Accelerated wound closure was considered to be significant if mean quartile of replicates was […] that of untreated controls (p<0.05, t-test). In addition, “wound” areas were created by seeding cells in the presence of 3 mm stainless steel pins (96-well plate), or by inserting flat-edged Teflon rings. These devices were removed after overnight incubation of the NFF cells.

[2] = test system: chronic, non-healing wounds; test: Veterinary case studies 1 to 7, non-healing wounds in dogs; assay type: in vivo, Canis lupus familiaris
Method: Seven dogs (Canis lupus familiaris) and one tree kangaroo (Dendrolagus humholzii) with chronic, non-healing wounds that were unresponsive to current veterinary standards-of-care for these indications were treated with Compound 1 by independent veterinarians. A second tree kangaroo and a spectacled flying fox (Pteropus conspicillatus) with wounds unsuited for initial treatment with current standards-of-care were also treated with Compound 1. All cases were managed as open wounds without the use of dressings or other bandaging during the course of treatment with Compound 1 and the subsequent period of wound resolution. Unless stated in individual case studies, no concomitant medications were used over the course of treatments with Compound 1.
Case notes: • Frail patient with severe osteoarthritis, considered a high anaesthetic risk for any surgical intervention. • Patient had persistent infected cyst on the back proximal to the tail that had not responded to regular draining and injection of the cyst with antibiotics (gentamycin, enrofloxacin, norocillin) over a 5 month period. • Patient presented with the burst cyst and elevated temperature. The cyst was cleaned to remove dead skin and then flushed with saline and chlorhexidene.
The wound area was fully healed by 63 days after treatment. • The wound on leg also responded quickly with eschar present in localised areas. By 14 days the eschar had largely shed and healthy underlying granulation tissue was observed.
Case notes: • Patient presented with a non-healing laceration due to a hunting accident that had been present on the left ear for more than 6 weeks. • Three treatments, each of 0.1 mL of 5 mg/mL gel formulation of Compound 1, were applied to the affected area at 8 day intervals. No concomitant medications were used during the course of treatment of the patient with Compound 1. • By 41 days after the first treatment with Compound 1 the wound had fully closed.
Case notes: • The patient presented with non-healing (infected and inflamed) sore on upper part of left ear and was treated for 10 weeks with standard-of-care protocols involving regular application of (i) a topical dermatological formulation (Neotopic) combining antibacterial (neomycin sulphate), anti-inflammatory (hydrocortisone) and anti-pruritic (lignocaine) agents, and (b) a commercial suspension (Auracol) with anti-inflammatory (prednisolone), antifungal (miconazole nitrate) and antibacterial (polymixin B sulphate) components. Prior to these treatments the patient was on an on-going course of low dose oral corticosteroids (macrolone) for treatment of chronic canine atopic dermatitis syndrome. • After 10 weeks of the standard-of-care protocol there was no sign of wound resolution. • A single treatment of 3 mL of a 5 mg/mL gel formulation of Compound 1 was applied to the affected area and within 15 minutes of application of Compound 1 there was discernable reddening of the treated area. • From 4 days after treatment with Compound 1 the patient recommenced low dose daily corticosteroids (macrolone) for treatment of the severe atopic dermatitis.
Case notes: • The patient presented with two non-healing wounds at the tip and base of the right ear and a non-healing wound on the snout that owner had observed present for more than 4 weeks. Possible origin was infected spider or other insect bites. • Two treatments, each of 0.1 mL of 5 mg/mL gel formulation of Compound 1, were applied to both affected areas on the ears at a 5 day interval.

[3] = Case 1, 76 days following the final treatment
[4] = Case 5, 152 days after the initial treatment
[5] = Case 6, 83 days after treatment

## CC=C(C)C(=O)OC1C(C)C2(O)C(C3OC3(CO)C(O)C3(O)C(=O)C(C)=CC32)C2C(C)(C)C12OC(=O)C(C)CC (stereo not drawn) [Compound 1, 12-tigloyl-13-(2-methylbutanoyl)-6,7-epoxy-4,5,9,12,13,20-hexahydroxy-1-tigliaen-3-one]
[1]
  % closure compared to control: 180%
[2]; Case 1, Bernese Mountain Dog, facial wound, gel 3 mg/mL x5, then 1 mL 0.5 mg/mL injected, 35 days following injection
  wound status: infilled with healthy differentiating granulation tissue
[2]; [3]
  hair regrowth, % of the original wound area: greater than 95%
  wound outcome: healed and was infilled with normal tissue minimal scarring
[2]; Case 2, Boxer, burst infected cyst, 0.5 mL gel 3 mg/mL, 5 days post treatment
  wound area as % of the area of the original wound: less than 30%
[2]; Case 2, 30 days
  hair regrowth over the original wound area: greater than 70%
  wound outcome: resolved with normal tissue
[2]; Case 3, Chow Chow, two bite wounds, 0.4 mL gel 3 mg/mL each, 15 days post treatment
  wound size as % of original size: less than 40%
[2]; Case 3, 46 days following treatment
  wound outcome: completely resolved with normal tissue, no scarring and complete hair regrowth
[2]; Case 4, Boxer, single 0.4 mL gel 5 mg/mL
  time to complete wound closure, facial wound: ≤ 14 days
[2]; Case 4, 63 days after treatment
  hair cover, leg wound: greater than 95%
[2]; Case 4, single 0.4 mL gel 5 mg/mL
  time to fully healed wound area, facial wound: ≤ 63 days
[2]; Case 4, single 0.6 mL gel 5 mg/mL, 63 days after treatment
  wound outcome, leg wound: completely closed
[2]; Case 5, Bull Arab, ear laceration, 3 x 0.1 mL gel 5 mg/mL at 8 day intervals, after first treatment
  time to full wound closure: ≤ 41 days
[2]; [4]
  hair coverage over the original wound site: greater than 80%
  wound outcome: complete wound resolution, minimal scarring
[2]; Case 6, Boxer, ear wound, single 3 mL gel 5 mg/mL
  time to discernable reddening of the treated area: ≤ 15 min
[2]; Case 6, 17 days after treatment
  wound status: no sign of infection or inflammation
[2]; [5]
  hair regrowth, % of the original wound area: more than 90%
  wound outcome: complete wound closure
[2]; Case 6, 139 days after treatment
  scarring: no evidence of scarring
[2]; Case 7, Jack Russell Terrier, 2 x 0.1 mL gel 5 mg/mL, 13 days after the first treatment
  wound status, ear wounds: contracted significantly and had formed eschars
[2]; Case 7, 2 x 0.1 mL gel 5 mg/mL
  time to full wound closure, ear wounds: ≤ 29 days
[2]; Case 7, single 0.1 mL gel 5 mg/mL, 16 days after treatment
  wound outcome, snout wound: fully resolved
